The source made the active and inactive calls.
Legend:
[1] = growth suppression of beta-catenin-knockout colon cells, dose response, cell-based, HCT116, human colon tumor (AID 1045); type: functional;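 also: HCT116 colon tumor cells with beta catenin knocked out; cells exposed to compound for 60 hours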
[2] = growth suppression of PTEN-null colon cells, dose response, cell-based, HCT116 PTEN knockout (AID 1047); type: functional;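 also: HCT116 colon tumor cells with PTEN knocked out; cells exposed to compound for 60 hours before readout; potency for loss of cell viability measured by luminescence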
Mucolipin-3 = target: T1, Mucolipin-3 (Homo sapiens, UniProt Q8TDD5); test: Fluorescence counterscreen assay for […] agonists: dose response cell-based high-throughput screening assay to identify agonists of the transient receptor potential channel ML3 (TRPML3). [Related pubchem assays: 1424, 1448 ]; type: functional
T1 sequence (Q8TDD5 whole entry): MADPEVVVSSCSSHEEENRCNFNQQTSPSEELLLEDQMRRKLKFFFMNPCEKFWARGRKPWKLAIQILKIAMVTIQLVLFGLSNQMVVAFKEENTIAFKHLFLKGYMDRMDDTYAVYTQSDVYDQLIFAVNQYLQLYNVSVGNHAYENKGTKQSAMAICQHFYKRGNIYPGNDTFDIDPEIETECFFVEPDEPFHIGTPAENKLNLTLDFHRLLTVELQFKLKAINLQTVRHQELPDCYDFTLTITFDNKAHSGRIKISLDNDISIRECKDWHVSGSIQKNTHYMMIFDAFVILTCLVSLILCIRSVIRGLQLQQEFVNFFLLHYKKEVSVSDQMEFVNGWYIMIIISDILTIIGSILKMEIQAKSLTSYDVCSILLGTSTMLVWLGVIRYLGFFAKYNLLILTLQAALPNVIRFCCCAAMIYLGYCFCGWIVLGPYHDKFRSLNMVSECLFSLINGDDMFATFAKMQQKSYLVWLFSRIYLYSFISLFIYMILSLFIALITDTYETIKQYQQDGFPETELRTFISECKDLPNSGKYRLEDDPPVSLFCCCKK

Ion channel NompC = Ion channel NompC (Danio rerio, UniProt Q7T1G6); test: Dose response cell-based high-throughput screening assay for agonists of the transient receptor potential channel N1 (TRPN1). [Related pubchem assays (depositor defined):AID1424, AID1448]; type: functional
HEK293 [3] = test: cells; conditions: Homo sapiens
HEK293 [4] = test: cells; conditions: Homo sapiens; remark: listed apart in the source
[5] = target: T2, Lysine-specific demethylase 4C (Homo sapiens, UniProt Q9H3R0); test: GASC-1 (JMJD2C) histone demethylase inhibitors, dose response, biochemical, DELFIA europium, cherry-picked samples (AID 488835); type: functional
T2 sequence (Q9H3R0 whole entry): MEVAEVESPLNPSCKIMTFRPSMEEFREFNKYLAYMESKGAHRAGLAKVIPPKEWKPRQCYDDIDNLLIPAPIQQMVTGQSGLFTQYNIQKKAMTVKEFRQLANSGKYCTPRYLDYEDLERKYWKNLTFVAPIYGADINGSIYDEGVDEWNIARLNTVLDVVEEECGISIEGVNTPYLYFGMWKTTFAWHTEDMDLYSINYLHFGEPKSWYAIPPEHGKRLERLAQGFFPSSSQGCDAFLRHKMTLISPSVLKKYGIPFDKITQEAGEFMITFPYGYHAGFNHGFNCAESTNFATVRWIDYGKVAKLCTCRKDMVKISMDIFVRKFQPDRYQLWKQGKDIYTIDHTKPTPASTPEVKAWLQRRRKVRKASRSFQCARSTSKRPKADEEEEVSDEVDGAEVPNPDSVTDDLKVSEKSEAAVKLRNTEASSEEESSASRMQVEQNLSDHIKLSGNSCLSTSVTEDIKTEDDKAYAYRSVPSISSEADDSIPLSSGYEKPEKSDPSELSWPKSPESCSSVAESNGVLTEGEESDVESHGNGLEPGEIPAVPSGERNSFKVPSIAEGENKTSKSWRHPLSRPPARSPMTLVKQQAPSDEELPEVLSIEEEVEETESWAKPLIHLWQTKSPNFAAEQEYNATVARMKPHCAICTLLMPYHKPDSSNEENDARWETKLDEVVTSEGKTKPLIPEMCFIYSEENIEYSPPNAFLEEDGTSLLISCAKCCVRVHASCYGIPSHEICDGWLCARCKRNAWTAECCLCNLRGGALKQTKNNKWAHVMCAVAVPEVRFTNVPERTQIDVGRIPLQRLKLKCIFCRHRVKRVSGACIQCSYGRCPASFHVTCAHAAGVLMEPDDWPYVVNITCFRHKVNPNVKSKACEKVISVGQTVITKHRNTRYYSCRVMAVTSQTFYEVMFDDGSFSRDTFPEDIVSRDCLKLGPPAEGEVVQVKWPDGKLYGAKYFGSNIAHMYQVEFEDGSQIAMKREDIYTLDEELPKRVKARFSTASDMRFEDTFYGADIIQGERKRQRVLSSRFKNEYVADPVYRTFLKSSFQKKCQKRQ

[6] = target: DNA dC->dU-editing enzyme APOBEC-3A (Homo sapiens, UniProt P31941); test: Dose Response confirmation of small molecule APOBEC3A DNA Deaminase Inhibitors via a fluorescence-based single-stranded DNA deaminase assay. [Related pubchem assays (depositor defined):AID493011, AID493024]; type: functional
[7] = target: DNA dC->dU-editing enzyme APOBEC-3G (Homo sapiens, UniProt Q9HC16); type: functional;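 also: Dose-response counterscreen measuring inhibition of APOBEC3G DNA deaminase activity, run while confirming APOBEC3A inhibitors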
[8] = target: T3, Bifunctional protein GlmU (Mycobacterium tuberculosis, UniProt P9WMN3); test: Inhibitors of Mycobacterial Glucosamine-1-phosphate acetyl transferase (GlmU). Secondary screen.; design: species or system Mycobacterium tuberculosis H37Rv
T3 sequence (P9WMN3 whole entry): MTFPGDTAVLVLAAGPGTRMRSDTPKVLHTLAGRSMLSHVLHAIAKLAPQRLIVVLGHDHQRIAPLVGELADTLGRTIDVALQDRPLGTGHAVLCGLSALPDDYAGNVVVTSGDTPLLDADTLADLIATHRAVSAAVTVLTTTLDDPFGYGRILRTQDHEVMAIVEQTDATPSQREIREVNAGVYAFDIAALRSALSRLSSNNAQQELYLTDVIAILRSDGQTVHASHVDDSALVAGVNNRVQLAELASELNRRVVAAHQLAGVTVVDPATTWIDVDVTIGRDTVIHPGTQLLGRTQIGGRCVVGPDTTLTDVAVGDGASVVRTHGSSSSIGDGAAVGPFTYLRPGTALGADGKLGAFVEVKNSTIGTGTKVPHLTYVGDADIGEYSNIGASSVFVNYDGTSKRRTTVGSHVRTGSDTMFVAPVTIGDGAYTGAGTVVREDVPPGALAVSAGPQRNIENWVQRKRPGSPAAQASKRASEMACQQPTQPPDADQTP

[9] = target: T4, Corticotropin-releasing factor receptor 2/Corticotropin-releasing factor-binding protein (Homo sapiens, UniProt P24387+Q13324); test: activators of CRF receptor 2 with binding protein – uHTS hits, confirmation (AID 602473); type: functional; conditions: read-out: EC50_Mean
T4 sequence (Q13324 whole entry): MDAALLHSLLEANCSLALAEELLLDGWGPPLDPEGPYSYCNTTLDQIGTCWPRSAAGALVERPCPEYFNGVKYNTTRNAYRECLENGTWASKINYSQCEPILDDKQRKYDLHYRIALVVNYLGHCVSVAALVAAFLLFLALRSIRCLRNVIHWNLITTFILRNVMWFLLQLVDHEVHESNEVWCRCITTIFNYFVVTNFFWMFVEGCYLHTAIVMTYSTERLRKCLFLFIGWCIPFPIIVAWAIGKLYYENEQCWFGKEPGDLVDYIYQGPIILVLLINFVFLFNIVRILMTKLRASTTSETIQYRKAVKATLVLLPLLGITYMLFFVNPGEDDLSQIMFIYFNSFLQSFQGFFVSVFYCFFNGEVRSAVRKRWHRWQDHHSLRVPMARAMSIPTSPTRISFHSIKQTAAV
T4 sequence (P24387 whole entry): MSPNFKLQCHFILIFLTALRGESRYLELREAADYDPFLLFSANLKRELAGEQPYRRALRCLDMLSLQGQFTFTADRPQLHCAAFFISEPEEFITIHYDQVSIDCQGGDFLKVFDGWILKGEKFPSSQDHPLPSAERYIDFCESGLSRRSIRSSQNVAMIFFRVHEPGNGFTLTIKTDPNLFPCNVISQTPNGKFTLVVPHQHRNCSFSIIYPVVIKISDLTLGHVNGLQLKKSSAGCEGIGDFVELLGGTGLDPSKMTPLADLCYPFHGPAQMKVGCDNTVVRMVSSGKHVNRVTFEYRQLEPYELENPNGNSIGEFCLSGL

Large T antigen = Large T antigen (Simian virus 40, UniProt P03070); type: functional, Betapolyomavirus macacae;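 also: Confirmatory-stage PubChem screen for compounds that inhibit SV40 T antigen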
[10] = target: Alkaline phosphatase, placental type (Homo sapiens, UniProt P05187); test: PLAP enzyme inhibitors, confirmation, biochemical, luminescence (AID 1512); type: functional
Leucine aminopeptidase = target: T5, Leucine aminopeptidase (Plasmodium falciparum 3D7, UniProt Q8IL11); test: P. falciparum M17LAP inhibitors, primary screen, biochemical, fluorogenic H-Leu-NHMec substrate, 1536-well (AID 1619); type: functional
T5 sequence (Q8IL11 whole entry): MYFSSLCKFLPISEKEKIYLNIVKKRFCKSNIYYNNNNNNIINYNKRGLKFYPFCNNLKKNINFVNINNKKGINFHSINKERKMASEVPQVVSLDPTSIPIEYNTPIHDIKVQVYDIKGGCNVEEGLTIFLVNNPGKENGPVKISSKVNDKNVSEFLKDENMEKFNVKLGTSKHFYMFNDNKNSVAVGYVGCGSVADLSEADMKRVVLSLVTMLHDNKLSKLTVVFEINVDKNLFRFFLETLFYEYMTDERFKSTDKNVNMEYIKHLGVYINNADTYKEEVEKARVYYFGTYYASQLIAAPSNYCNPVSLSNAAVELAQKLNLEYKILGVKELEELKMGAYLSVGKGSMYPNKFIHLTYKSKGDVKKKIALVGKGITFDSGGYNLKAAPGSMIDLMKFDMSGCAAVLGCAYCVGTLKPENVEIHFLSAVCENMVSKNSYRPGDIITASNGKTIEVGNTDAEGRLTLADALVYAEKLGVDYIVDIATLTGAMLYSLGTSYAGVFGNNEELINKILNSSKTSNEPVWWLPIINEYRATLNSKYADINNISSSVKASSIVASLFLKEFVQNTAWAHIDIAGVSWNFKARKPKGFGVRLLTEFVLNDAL

[11] = target: T6, Alkaline phosphatase, tissue-nonspecific isozyme (Homo sapiens, UniProt P05186); test: human TNAP enzyme inhibitors, SAR follow-up, biochemical, luminescent, dose response (AID 1056)
T6 sequence (P05186 whole entry): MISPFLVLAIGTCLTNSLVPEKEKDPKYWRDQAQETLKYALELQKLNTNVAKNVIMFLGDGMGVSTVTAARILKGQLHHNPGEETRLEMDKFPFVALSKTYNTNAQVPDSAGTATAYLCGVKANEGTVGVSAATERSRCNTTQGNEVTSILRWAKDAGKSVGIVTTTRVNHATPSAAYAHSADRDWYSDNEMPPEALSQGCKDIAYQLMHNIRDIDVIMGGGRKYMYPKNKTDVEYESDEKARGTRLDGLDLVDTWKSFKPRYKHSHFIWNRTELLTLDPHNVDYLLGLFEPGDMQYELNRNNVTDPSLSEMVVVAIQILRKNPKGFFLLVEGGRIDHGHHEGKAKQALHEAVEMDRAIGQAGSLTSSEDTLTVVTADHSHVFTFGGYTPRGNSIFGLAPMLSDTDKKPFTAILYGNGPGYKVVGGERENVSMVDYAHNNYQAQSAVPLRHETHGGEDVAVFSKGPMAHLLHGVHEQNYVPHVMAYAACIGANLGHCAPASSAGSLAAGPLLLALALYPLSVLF

Cytochrome P450 2C19 = Cytochrome P450 2C19 (Homo sapiens, UniProt P33261); test: Cytochrome panel assay with activity outcomes. Panel member name: p450-cyp2c19 Compounds with AC50 equal or less than 10 uM are considered active; type: functional; conditions: read-out: AC50
Chain of Cytochrome P450 2C19 (P33261 whole entry): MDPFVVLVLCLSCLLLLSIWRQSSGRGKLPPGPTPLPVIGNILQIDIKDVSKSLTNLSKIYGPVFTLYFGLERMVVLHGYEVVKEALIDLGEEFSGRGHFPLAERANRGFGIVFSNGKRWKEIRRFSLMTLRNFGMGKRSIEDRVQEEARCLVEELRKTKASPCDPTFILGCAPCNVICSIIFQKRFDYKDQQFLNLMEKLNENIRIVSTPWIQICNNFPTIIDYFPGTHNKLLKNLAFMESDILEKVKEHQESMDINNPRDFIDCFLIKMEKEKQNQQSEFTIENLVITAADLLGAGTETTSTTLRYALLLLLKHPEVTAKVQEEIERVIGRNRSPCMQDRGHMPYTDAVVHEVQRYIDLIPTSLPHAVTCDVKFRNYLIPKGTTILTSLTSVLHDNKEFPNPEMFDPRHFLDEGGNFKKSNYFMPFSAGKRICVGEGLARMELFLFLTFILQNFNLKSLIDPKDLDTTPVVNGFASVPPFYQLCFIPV

Chain of DNA dC->dU-editing enzyme APOBEC-3A (P31941 whole entry): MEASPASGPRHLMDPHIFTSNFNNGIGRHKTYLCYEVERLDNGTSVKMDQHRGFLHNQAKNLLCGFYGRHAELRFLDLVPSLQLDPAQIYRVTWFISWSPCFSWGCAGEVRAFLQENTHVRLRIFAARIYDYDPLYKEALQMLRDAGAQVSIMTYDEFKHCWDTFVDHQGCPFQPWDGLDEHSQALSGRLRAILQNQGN
Chain of DNA dC->dU-editing enzyme APOBEC-3G (Q9HC16 whole entry): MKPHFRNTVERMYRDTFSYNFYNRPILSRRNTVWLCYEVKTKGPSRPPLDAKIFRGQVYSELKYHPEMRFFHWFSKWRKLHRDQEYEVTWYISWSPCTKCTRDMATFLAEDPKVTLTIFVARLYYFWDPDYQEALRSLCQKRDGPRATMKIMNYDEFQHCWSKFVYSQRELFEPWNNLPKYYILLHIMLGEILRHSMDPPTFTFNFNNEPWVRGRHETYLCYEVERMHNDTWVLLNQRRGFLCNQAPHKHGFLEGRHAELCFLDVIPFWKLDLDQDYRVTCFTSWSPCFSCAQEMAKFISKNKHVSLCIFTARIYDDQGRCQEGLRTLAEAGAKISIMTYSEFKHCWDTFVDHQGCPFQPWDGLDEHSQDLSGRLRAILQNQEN
Chain of Ion channel NompC (Q7T1G6 whole entry): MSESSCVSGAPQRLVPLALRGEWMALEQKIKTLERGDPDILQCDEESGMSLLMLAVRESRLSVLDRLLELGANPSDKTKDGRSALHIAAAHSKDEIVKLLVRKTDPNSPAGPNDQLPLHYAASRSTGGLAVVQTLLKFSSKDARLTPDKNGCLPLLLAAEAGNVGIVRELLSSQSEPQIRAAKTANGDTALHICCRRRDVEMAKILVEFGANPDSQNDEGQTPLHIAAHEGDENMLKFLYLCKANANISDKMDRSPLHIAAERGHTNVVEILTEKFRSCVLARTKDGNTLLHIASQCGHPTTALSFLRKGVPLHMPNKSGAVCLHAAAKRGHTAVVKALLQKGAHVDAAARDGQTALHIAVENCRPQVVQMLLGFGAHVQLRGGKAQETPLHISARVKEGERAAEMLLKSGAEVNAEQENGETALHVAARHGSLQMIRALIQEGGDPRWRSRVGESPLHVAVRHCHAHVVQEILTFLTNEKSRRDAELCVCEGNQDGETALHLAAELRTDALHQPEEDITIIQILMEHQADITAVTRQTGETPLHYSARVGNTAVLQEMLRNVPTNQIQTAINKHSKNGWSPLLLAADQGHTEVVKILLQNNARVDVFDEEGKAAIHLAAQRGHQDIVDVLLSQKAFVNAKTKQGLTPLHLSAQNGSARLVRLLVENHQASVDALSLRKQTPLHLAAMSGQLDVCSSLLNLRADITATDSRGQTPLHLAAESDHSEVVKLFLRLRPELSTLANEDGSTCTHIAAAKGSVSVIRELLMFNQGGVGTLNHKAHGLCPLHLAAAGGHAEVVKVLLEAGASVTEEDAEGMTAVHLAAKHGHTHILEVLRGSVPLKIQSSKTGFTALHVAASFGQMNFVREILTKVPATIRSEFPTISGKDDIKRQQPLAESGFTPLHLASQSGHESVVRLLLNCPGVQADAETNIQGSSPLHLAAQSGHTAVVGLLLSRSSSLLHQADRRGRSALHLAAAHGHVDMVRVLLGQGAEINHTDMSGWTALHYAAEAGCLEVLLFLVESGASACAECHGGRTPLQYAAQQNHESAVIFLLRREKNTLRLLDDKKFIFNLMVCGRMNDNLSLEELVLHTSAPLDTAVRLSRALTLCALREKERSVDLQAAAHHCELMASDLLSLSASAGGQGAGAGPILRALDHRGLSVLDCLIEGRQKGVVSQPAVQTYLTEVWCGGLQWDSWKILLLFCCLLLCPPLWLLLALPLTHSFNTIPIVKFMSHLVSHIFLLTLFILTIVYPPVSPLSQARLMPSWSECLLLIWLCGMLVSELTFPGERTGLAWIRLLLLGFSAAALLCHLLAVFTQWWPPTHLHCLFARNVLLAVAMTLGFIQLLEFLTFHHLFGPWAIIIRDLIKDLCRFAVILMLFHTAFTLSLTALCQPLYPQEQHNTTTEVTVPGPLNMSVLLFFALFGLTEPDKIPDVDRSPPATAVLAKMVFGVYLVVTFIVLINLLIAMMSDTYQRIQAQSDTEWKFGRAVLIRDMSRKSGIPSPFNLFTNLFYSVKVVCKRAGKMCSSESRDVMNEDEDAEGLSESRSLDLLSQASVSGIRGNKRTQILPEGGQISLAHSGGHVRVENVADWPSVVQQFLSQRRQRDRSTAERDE
Chain of Large T antigen (P03070 whole entry): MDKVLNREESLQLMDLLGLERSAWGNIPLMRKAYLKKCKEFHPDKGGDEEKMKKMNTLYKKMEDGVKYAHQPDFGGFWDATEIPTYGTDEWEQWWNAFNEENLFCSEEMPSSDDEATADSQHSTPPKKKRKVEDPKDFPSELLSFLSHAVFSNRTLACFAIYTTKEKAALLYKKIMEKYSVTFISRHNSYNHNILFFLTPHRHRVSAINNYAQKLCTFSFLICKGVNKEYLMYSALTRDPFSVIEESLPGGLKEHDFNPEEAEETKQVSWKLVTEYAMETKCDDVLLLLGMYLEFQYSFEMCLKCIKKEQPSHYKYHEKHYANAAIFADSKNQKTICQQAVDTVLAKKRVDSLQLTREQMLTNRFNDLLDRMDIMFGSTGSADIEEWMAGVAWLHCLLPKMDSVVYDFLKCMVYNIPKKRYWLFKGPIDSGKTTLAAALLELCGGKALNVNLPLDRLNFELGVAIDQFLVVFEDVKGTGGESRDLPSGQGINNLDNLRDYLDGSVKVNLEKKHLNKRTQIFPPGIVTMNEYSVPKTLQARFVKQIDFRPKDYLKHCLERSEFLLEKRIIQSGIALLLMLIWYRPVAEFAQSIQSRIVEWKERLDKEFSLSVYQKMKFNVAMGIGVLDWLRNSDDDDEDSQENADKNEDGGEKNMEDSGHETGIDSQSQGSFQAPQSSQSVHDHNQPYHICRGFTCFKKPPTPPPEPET
Chain of Alkaline phosphatase, placental type (P05187 whole entry): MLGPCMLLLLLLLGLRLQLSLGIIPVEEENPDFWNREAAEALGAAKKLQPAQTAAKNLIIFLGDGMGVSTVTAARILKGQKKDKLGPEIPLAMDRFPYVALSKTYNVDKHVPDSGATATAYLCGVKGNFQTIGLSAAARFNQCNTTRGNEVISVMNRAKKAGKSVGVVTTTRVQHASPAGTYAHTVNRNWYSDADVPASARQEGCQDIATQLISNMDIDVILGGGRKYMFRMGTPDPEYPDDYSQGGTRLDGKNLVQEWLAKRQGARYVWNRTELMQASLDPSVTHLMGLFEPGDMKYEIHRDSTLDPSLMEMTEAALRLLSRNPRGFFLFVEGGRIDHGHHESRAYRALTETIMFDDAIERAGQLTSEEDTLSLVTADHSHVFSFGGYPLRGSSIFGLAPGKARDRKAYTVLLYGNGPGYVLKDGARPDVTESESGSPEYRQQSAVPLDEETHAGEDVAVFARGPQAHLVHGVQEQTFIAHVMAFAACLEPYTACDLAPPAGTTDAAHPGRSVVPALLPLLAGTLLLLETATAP

## O=C(Nc1ccccc1)Nc1ccc(F)c([N+](=O)[O-])c1
[1]
  EC50: 18.1 µM (active)
[2]
  EC50: 15.2 µM (active)
Mucolipin-3
  EC50: > 29.9 µM (not active)
Ion channel NompC
  EC50: > 29.9 µM (inactive)

## N#Cc1c(N)n(C2CCCCC2)c2nc3ccccc3nc12
HEK293 [3]
  EC50: > 59.6 µM (inactive)
HEK293 [4]
  EC50: > 59.6 µM (inactive)

## CN1C(=O)N(C)C(=O)C2(Sc3ccccc3C2=O)C1=O
[5]
  AC50: 11.2 µM (active)

## COc1ccccc1N(CC(=O)Nc1ccc2c(c1)OCO2)S(=O)(=O)c1ccccc1
[6]
  IC50: 2.01 µM (active)
[7]
  IC50: 1.81 µM (active)

## Cc1cccc(N2C(=O)NC(=O)/C(=C/c3ccc([N+](=O)[O-])o3)C2=O)c1
[5]
  AC50: 5.37 µM (active)
[8]
  IC50: 149 µM (active)

## NC(S)=NNC(=O)C12CC3CC(CC(C3)C1)C2
[9]
  EC50: 3.53 µM (active)
Mucolipin-3
  EC50: 2.76 µM (active)
Ion channel NompC
  EC50: 1.47 µM (active)

## CCn1c(SCC(=O)c2ccc(O)c(O)c2)nnc1-c1ccc(C)cc1
Large T antigen
  IC50: 10.4 µM (active)
[10]
  IC50: 11.8 µM (active)
Leucine aminopeptidase
  IC50: 17.9 µM (active)
[11]
  IC50: > 100 µM (inactive)

## COc1ccc(Br)cc1CN(C)C(=O)C1=CC=CN2CCS(=O)(=O)N=C12
[6]
  IC50: 20.2 µM (active)
[7]
  IC50: 48.3 µM (active)

## Cc1ccc(C)c(NC(=O)c2nc[nH]n2)c1
Cytochrome P450 2C19
  AC50: 39.8 µM (inconclusive)
[6]
  IC50: 11.6 µM (active)
[7]
  IC50: 14.1 µM (active)

## CCCCCn1/c(=N/C(=O)c2ccco2)c(C(=O)OCC)cc2c(=O)n3ccccc3nc21
HEK293 [3]
  EC50: > 59.6 µM (inactive)
HEK293 [4]
  EC50: > 59.6 µM (inactive)

Source: ChEMBL document CHEMBL1201862, “PubChem BioAssay data set” (2004)
